In patent US8247170B2, “Detection of penicillin tolerance in Group B Streptococcus: single nucleotide polymorphisms in penicillin binding protein 4” (priority 2008, dated 2012):

System: GBS laboratory strains
Test: MBC90:MIC90 ratio method of determining antibiotic tolerance
Type: cell-based, Group B Streptococcus
Conditions: for MBC / MIC / MIC90: Streptococcus; for MBC: 24 h, ≧90% non-viable cells, plate counts after 24 h antibiotic; for MIC: ≧90% growth-inhibited, OD600; for MIC90: for GBS, as stated under culture conditions
Procedure: The inventors ascertained the incidence of antibiotic tolerance in GBS clinical isolates collected from cervicovaginal-rectal swabs, by investigating cell wall inhibitors used to eliminate GBS colonization in pregnant women before delivery as stated by the CDC guidelines. A ratio of the minimum bactericidal concentration (MBC) over minimum inhibitory concentration (MIC) after 24 h of antibiotic incubation or by determining quantitative kill curves has been used to define antibiotic tolerance previously.
The MBC:MIC ratio was calculated for laboratory strains using three β-lactam antibiotics (Penicillin G, Ampicillin, and Cefazolin) and a glycopeptide antibiotic (Vancomycin) (Table 1). Early-log phase cultures of GBS were treated with the individual antibiotics at a concentration of 0.25 to 512×MIC90. The optical density (OD600) of antibiotic treated cultures was used to determine the MIC90 after 24 h and a cell count was used to determine their MBC90. Susceptible, tolerant and intermediate strains were defined by their MBC:MIC ratio of ≦2:1, ≧32:1 and 4:1-16:1 respectively. […] The ratios characterized GBS strains A909 and 2603V/R as Susceptible, O90R as Tolerant, and NEM316 as Intermediate to Penicillin, Ampicillin, and Cefazolin. All four strains were susceptible to Vancomycin.
(I) Bacterial Strains and Culture Conditions. GBS strains A909 (serotype IA), 515 (serotype IA), NEM316 (serotype III), COHI (serotype III), 2603V/R (serotype V) and O90R (non-typable) were used in this study. E. coli Top10 cells were used for the recombination experiments. GBS was cultured in Todd Hewitt broth (THB) or Tryptic Soy 5% sheep blood (TS) media and E. coli in Luria-broth (LB) medium or agar. Antibiotics were used at the following concentrations: for GBS—penicillin G (MIC90 0.06 μg ml^−1), ampicillin (MIC90 0.12 μg ml^−1), vancomycin (MIC90 2 μg ml^−1), cefazolin (MIC90 1 μg ml^−1) and chloramphenicol (5 μg ml^−1); for E. coli—ampicillin (50 μg ml^−1) and chloramphenicol (5 μg ml^−1). Both GBS and E. coli cultures were grown at 37° C. (II) Tolerance Using the MBC:MIC Ratio Method. Three GBS laboratory strains (i.e., A909, NEM316, and O90R) were cultured overnight for 18 h at 37° C. in THB. Subcultures in THB were subsequently grown to exponential phase (OD600˜0.3; i.e. 5×10^5 cfu/ml) at 37° C. Cell cultures were then exposed to different concentrations of antibiotics (Penicillin G, Ampicillin, Cefozolin or Vancomycin). […] Cell cultures were dispersed every 18 h before OD600 was measured to determine the lowest concentration of antibiotic with 90% growth inhibition (MIC90). Antibiotic treated cells (8 μl) from each well were re-suspended into PBS (100 μl) and plated (54 μl) on TS agar plates and allowed to grow for an additional 24 h at 37° C. Cell count was performed to determine the lowest concentration of antibiotic with 90% killing of original inoculums (MBC90). (III) Penicillin Killing and Regrowth Tolerance Assay by Microbroth Dilution. Three GBS laboratory strains (i.e., A909, NEM316, and O90R) were cultured overnight for 18 h at 37° C. in THB. Subcultures in THB were subsequently grown to exponential phase (OD600˜0.3) at 37° C. Cell cultures were then exposed to different concentrations of Penicillin G (Sigma, St. Louis, Mo.). […] Cell cultures were dispersed. A 1:20 dilution of cells was re-plated into new wells containing fresh THB with 500 U Penase (to degrade residual penicillin). Cell cultures were allowed to re-grow for an additional 24 h at 37° C. before the OD600 was measured. (IV) Measuring Cell Viability by Determining ATP Concentration. GBS strains were cultured for 18 h at 37° C. in THB. These cells were inoculated into fresh THB and subsequently allowed to grow to exponential phase (OD600 0.25-0.3) at 37° C. One ml of each culture was centrifuged at 5,000×g for 4 min. The cell pellet was re-suspended in ATP-free water. […]

Row | SMILES | Ratio (MBC90:MIC90) (GBS strain 2603V/R) | Ratio (MBC90:MIC90) (GBS strain A909) | Ratio (MBC90:MIC90) (GBS strain NEM316) | Ratio (MBC90:MIC90) (GBS strain O90R) | MBC (GBS strain 2603V/R) [µg/mL] | MBC (GBS strain A909) [µg/mL] | MBC (GBS strain NEM316) [µg/mL] | MBC (GBS strain O90R) [µg/mL] | MIC (GBS strain 2603V/R) [µg/mL] | MIC (GBS strain A909) [µg/mL] | MIC (GBS strain NEM316) [µg/mL] | MIC (GBS strain O90R) [µg/mL] | MIC90 [µg/mL]
1 | Cc1nnc(SCC2=C(C(=O)O)N3C(=O)[C@@H](NC(=O)Cn4cnnn4)[C@H]3SC2)s1 [Cefazolin] | 2 | 1 | 16 | 32 | 0.39 | 0.19 | 3.12 | 12.5 | 0.19 | 0.19 | 0.19 | 0.39 | 1
2 | CC1(C)S[C@@H]2[C@H](NC(=O)[C@H](N)c3ccccc3)C(=O)N2[C@H]1C(=O)O [Ampicillin] | 1 | 1 | 4 | – | 0.48 | 0.48 | 1.92 | 15.4 | 0.48 | 0.48 | 0.48 | 0.96 | 0.12
3 | CN[C@H](CC(C)C)C(=O)N[C@H]1C(=O)N[C@@H](CC(N)=O)C(=O)N[C@H]2C(=O)N[C@H]3C(=O)N[C@H](C(=O)N[C@H](C(=O)O)c4cc(O)cc(O)c4-c4cc3ccc4O)[C@H](O)c3ccc(c(Cl)c3)Oc3cc2cc(c3O[C@@H]2O[C@H](CO)[C@@H](O)[C@H](O)[C@H]2O[C@H]2C[C@](C)(N)[C@H](O)[C@H](C)O2)Oc2ccc(cc2Cl)[C@H]1O [Vancomycin] | 1 | 1 | 1 | 1 | 4 | 4 | 4 | 4 | 4 | 4 | 4 | 4 | 2
